Common to all, as to assay type: cell-based
One assay concerns the target T1, hGCGR (Homo sapiens, UniProt P47871).
T1 construct: expressed in transfected cells
In words: Functional cAMP formation (HTRF) in HEK-293 clonal cells expressing hGCGR, 0.1% bovine casein, without or with 1.0% human serum albumin. The essentials: (§1)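 Cells were stimulated with peptide for 30 min at 37° C, then lysed in buffer carrying cAMP-d2 and anti-cAMP Eu3+-cryptate for a competitive HTRF read after at least 60 min at room temperature. The 665/620 nm ratio was converted to nM cAMP against a standard curve.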
In general terms: cAMP levels reflect the balance of adenylyl cyclase and phosphodiesterase activity.

The next assay deals with hGLP-1R (Homo sapiens, UniProt P43220). In words: Functional cAMP formation (HTRF) in HEK-293 clonal cells expressing hGLP-1R, 0.1% bovine casein, without or with 1.0% human serum albumin. Set-up: expressed in transfected cells. Conditions: for EC50: cAMP, 0.1% bovine casein (no human serum albumin), geometric mean; for Emax: percent of maximal response to GLP-1(7-36)NH2. An outline of the steps: as §1

The next assay concerns the target T2, hGIPR (Homo sapiens, UniProt P48546).
T2 construct: expressed in transfected cells
T2 sequence (P48546 22-466): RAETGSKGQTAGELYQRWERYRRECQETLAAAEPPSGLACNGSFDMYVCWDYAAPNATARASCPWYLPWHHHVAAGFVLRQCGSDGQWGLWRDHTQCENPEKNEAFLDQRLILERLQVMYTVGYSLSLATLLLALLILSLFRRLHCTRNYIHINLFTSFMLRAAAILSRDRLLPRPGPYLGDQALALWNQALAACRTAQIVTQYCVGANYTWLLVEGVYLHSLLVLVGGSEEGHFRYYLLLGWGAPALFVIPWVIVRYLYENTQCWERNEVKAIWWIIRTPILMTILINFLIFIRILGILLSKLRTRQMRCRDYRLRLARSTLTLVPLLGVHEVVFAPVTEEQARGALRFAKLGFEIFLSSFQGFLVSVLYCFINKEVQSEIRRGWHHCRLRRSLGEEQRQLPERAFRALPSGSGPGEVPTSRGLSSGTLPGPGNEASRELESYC
The experiment in a line: Functional cAMP formation (HTRF) in HEK-293 clonal cells expressing hGIPR, 0.1% bovine casein, without or with 1.0% human serum albumin. Conditions: for EC50: cAMP. An outline of the steps:
as §1

Molecules are shown by their SMILES. Where two headings read alike, the source gives them in different places. *1 amine or outer side, *2 acyl side, *3 side chain or, on linkers, in order; H or OH if unused. Where a SMILES comes first, the peptide text is derived from it. Side-chain parts run from the residue outwards. [ ]: non-standard residue; d: D form. The star is where a group is joined. αMePhe(2-F) = C[C@](N)(Cc1ccccc1F)C(=O)O; γGlu = O=C(O)[C@H](CCC(=O)[*:2])N[*:1]; C14 diacid = O=C(O)CCCCCCCCCCCCC(=O)*; αMeY = C[C@](N)(Cc1ccc(O)cc1)C(=O)O; αMeL = CC(C)C[C@](C)(N)C(=O)O; Orn = NCCC[C@H](N)C(=O)O; AEEA = NCCOCCOCC(=O)O; Aib = CC(C)(N)C(=O)O

Sequence of hGLP-1R (P43220 24-463): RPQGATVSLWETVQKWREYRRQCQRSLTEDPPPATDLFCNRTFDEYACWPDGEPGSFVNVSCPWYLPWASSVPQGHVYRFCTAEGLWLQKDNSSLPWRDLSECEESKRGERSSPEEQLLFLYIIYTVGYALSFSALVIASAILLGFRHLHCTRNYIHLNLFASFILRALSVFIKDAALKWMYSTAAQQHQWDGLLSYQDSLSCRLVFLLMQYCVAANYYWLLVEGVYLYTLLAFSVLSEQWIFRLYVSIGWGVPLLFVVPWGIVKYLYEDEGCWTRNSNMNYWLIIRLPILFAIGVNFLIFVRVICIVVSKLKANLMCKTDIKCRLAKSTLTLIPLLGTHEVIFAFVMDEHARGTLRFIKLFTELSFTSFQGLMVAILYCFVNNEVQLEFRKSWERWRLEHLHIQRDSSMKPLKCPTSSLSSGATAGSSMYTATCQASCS
T1 sequence (P47871 26-477): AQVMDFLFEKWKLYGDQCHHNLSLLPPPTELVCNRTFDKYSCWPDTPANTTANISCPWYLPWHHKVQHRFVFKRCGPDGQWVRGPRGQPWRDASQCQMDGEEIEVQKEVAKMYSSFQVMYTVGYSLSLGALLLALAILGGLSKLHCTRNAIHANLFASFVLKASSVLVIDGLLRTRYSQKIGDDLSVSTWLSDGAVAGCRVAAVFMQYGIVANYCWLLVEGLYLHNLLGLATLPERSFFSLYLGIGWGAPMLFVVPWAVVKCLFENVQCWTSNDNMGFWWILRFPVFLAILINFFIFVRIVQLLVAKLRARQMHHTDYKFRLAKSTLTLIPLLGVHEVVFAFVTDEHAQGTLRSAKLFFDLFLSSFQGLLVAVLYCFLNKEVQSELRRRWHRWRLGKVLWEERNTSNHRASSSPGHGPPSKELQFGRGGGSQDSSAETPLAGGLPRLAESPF

One may read the EC50 as the concentration giving half of the maximal effect. The Emax is the greatest response seen or fitted, relative to the assay's reference. For the compound `CCCCCCCCCCCC(=O)N[C@@H](CCC(=O)NCCOCCOCC(=O)NCCOCCOCC(=O)NCCCC[C@H](NC(=O)[C@H](CCCN)NC(=O)[C@H](CC(=O)O)NC(=O)[C@H](CC(C)C)NC(=O)[C@](C)(CC(C)C)NC(=O)[C@@H](NC(=O)[C@H](CO)NC(=O)[C@H](Cc1ccncc1)NC(=O)[C@H](CC(=O)O)NC(=O)[C@H](CO)NC(=O)[C@@H](NC(=O)[C@](C)(Cc1ccccc1F)NC(=O)[C@@H](NC(=O)CNC(=O)[C@H](CCC(=O)O)NC(=O)C(C)(C)NC(=O)[C@@H](N)Cc1ccc(O)cc1)[C@@H](C)O)[C@@H](C)O)[C@@H](C)CC)C(=O)N[C@@H](C)C(=O)N[C@@H](CCC(N)=O)C(=O)NC(C)(C)C(=O)N[C@@H](CCC(=O)O)C(=O)N[C@@H](Cc1ccccc1)C(=O)N[C@H](C(=O)N[C@H](CCC(=O)O)C(=O)N[C@@](C)(Cc1ccc(O)cc1)C(=O)N[C@@H](CC(C)C)C(=O)N[C@H](C(=O)N[C@@H](CCC(=O)O)C(=O)NCC(=O)N[C@@H](CCCCNC(=O)COCCOCCNC(=O)COCCOCCNC(=O)CC[C@H](NC(=O)CCCCCCCCCCC)C(=O)O)C(=O)N1CCC[C@H]1C(=O)N[C@@H](CO)C(=O)N[C@@H](CO)C(=O)NCC(=O)N[C@@H](C)C(=O)N1CCC[C@H]1C(=O)N1CCC[C@H]1C(=O)N1CCC[C@H]1C(=O)N[C@@H](CO)C(N)=O)[C@@H](C)CC)[C@@H](C)CC)C(=O)O` [Example 140], the EC50 is above 9950 nM at hGCGR (cAMP, incubated at 37° C., 0.1% bovine casein (no human serum albumin), geometric mean, read-out: hGCGR EC50, nM (SEM, n)); 0.131 nM on hGLP-1R (incubated at 37° C., read-out: hGLP-1R EC50, nM (SEM, n)); 0.0121 nM on hGIPR (incubated at 37° C., 0.1% bovine casein (no human serum albumin), geometric mean, read-out: hGIPR EC50, nM (SEM, n)). Moreover, the Emax on hGIPR (HEK293, percent of maximal response to GIP(1-42)NH2, 37° C., 0.1% bovine casein, arithmetic mean, read-out: hGIPR Emax, % ± SEM) was 98.5 ± 1.71%.

For `CC[C@H](C)[C@H](NC(=O)[C@H](CCCN)NC(=O)[C@H](CC(=O)O)NC(=O)[C@H](CC(C)C)NC(=O)[C@](C)(CC(C)C)NC(=O)[C@@H](NC(=O)[C@H](CO)NC(=O)[C@H](CCc1ccc(O)cc1)NC(=O)[C@H](CC(=O)O)NC(=O)[C@H](CO)NC(=O)[C@@H](NC(=O)[C@](C)(Cc1ccccc1F)NC(=O)[C@@H](NC(=O)CNC(=O)[C@H](CCC(=O)O)NC(=O)C(C)(C)NC(=O)[C@@H](N)Cc1ccc(O)cc1)[C@@H](C)O)[C@@H](C)O)[C@@H](C)CC)C(=O)N[C@@H](C)C(=O)N[C@@H](CCC(N)=O)C(=O)NC(C)(C)C(=O)N[C@@H](CCC(=O)O)C(=O)N[C@@H](Cc1ccccc1)C(=O)N[C@H](C(=O)N[C@@H](CCCCNC(=O)COCCOCCNC(=O)COCCOCCNC(=O)CC[C@H](NC(=O)CCCCCCCCCOc1ccc(C(=O)O)cc1)C(=O)O)C(=O)N[C@@](C)(Cc1ccc(O)cc1)C(=O)N[C@@H](CC(C)C)C(=O)N[C@H](C(=O)N[C@@H](CCCCNC(=O)COCCOCCNC(=O)COCCOCCNC(=O)CC[C@H](NC(=O)CCCCCCCCCOc1ccc(C(=O)O)cc1)C(=O)O)C(=O)NCC(=O)NCC(=O)N1CCC[C@H]1C(=O)N[C@@H](CO)C(=O)N[C@@H](CO)C(=O)NCC(=O)N[C@@H](C)C(=O)N1CCC[C@H]1C(=O)N1CCC[C@H]1C(=O)N1CCC[C@H]1C(=O)N[C@@H](CO)C(N)=O)[C@@H](C)CC)[C@@H](C)CC` [Example 310], the EC50 is above 9950 nM at hGCGR (hGCGR EC50, nM (SEM, n), 0.1% bovine casein and 1.0% human serum albumin, 37° C., geometric mean); above 9950 nM at hGCGR (hGCGR EC50, nM (SEM, n), cAMP, 37° C., 0.1% bovine casein (no human serum albumin), geometric mean); 0.347 nM at hGLP-1R (hGLP-1R EC50, nM (SEM, n), 37° C.); 0.025 nM on hGIPR (hGIPR EC50, nM (SEM, n), 37° C., 0.1% bovine casein (no human serum albumin), geometric mean). Also, the Emax was found to be 105% on hGLP-1R (HEK293, read-out: hGLP-1R Emax, % ± SEM, cAMP, 37° C., 0.1% bovine casein, arithmetic mean); 83.9% at hGIPR (HEK293, read-out: hGIPR Emax, % ± SEM, 0.1% bovine casein and 1.0% human serum albumin, 37° C., percent of maximal response to GIP(1-42)NH2).

Turning to `CC[C@H](C)[C@H](NC(=O)[C@H](CC(C)C)NC(=O)[C@](C)(Cc1ccc(O)cc1)NC(=O)[C@@H](CCC(=O)O)NC(=O)[C@@H](NC(=O)[C@H](Cc1ccccc1)NC(=O)[C@H](CCCCNC(=O)COCCOCCNC(=O)COCCOCCNC(=O)CC[C@H](NC(=O)CCCCCCCCCCCCC(=O)O)C(=O)O)NC(=O)C(C)(C)NC(=O)[C@H](CCC(N)=O)NC(=O)[C@H](C)NC(=O)[C@H](CCCCNC(=O)COCCOCCNC(=O)COCCOCCNC(=O)CC[C@H](NC(=O)CCCCCCCCCCCCC(=O)O)C(=O)O)NC(=O)[C@H](CCCN)NC(=O)[C@H](CC(=O)O)NC(=O)[C@H](CC(C)C)NC(=O)[C@](C)(CC(C)C)NC(=O)[C@@H](NC(=O)C(C)(C)NC(=O)[C@@H](NC(=O)[C@H](CC(=O)O)NC(=O)[C@H](CO)NC(=O)[C@@H](NC(=O)[C@](C)(Cc1ccccc1F)NC(=O)[C@@H](NC(=O)CNC(=O)[C@H](CCC(=O)O)NC(=O)C(C)(C)NC(=O)[C@@H](N)Cc1ccc(O)cc1)[C@@H](C)O)[C@@H](C)O)C(C)C)[C@@H](C)CC)[C@@H](C)CC)C(=O)N[C@@H](CCCN)C(=O)NCC(=O)NCC(=O)N1CCC[C@H]1C(=O)N[C@@H](CO)C(=O)N[C@@H](CO)C(=O)NCC(=O)N[C@@H](C)C(=O)N1CCC[C@H]1C(=O)N1CCC[C@H]1C(=O)N1CCC[C@H]1C(=O)N[C@@H](CO)C(N)=O` [Example 407] (H-Y[Aib]EGT[αMePhe(2-F)]TSDV[Aib]I[αMeL]LD[Orn]K([AEEA-AEEA-γGlu-C14 diacid])AQ[Aib]K([AEEA-AEEA-γGlu-C14 diacid])FI[dE][αMeY]LI[Orn]GGPSSGAPPPS-NH2), the EC50 at hGCGR (cAMP, 37° C., 0.1% bovine casein (no human serum albumin), geometric mean, read-out: hGCGR EC50, nM (SEM, n)) is above 9950 nM; on hGCGR (cAMP, 37° C., 0.1% bovine casein and 1.0% human serum albumin, geometric mean (SEM, n), read-out: hGCGR EC50, nM (SEM, n)), above 9950 nM; at hGLP-1R (37° C., read-out: hGLP-1R EC50, nM (SEM, n)), 0.156 nM; on hGIPR (37° C., 0.1% bovine casein (no human serum albumin), geometric mean, read-out: hGIPR EC50, nM (SEM, n)), 0.0114 nM; on hGIPR (37° C., 0.1% bovine casein and 1.0% human serum albumin, geometric mean (SEM, n), read-out: hGIPR EC50, nM (SEM, n)), 1.87 nM. Also, the maximal effect (Emax) on hGLP-1R (HEK293, cAMP, 37° C., 0.1% bovine casein and 1.0% human serum albumin, read-out: hGLP-1R Emax, % ± SEM) was 97.2%; at hGLP-1R (HEK293, cAMP, 37° C., 0.1% bovine casein, arithmetic mean, read-out: hGLP-1R Emax, % ± SEM) it was 100%; at hGIPR (HEK293, cAMP, 37° C., 0.1% bovine casein and 1.0% human serum albumin, percent of maximal response to GIP(1-42)NH2, read-out: hGIPR Emax, % ± SEM), 95.4%.
